This note sets out measurements from US20240287138A1, “CYCLIC PEPTIDES FOR INHIBITING TNF RECEPTOR 1 ACTIVITY” (Merck Sharp & Dohme LLC, priority 2023, published 2024).

For experiment [1], the target named is T1, human TNFR2 ECD protein (Homo sapiens, UniProt P20333).
T1 construct: HRV 3C protease cleavage site (C); 6His (C, cleaved yes); made in house; host or cells: Sf21 insect cells (baculovirus), secreted
T1 sequence (P20333 23-257): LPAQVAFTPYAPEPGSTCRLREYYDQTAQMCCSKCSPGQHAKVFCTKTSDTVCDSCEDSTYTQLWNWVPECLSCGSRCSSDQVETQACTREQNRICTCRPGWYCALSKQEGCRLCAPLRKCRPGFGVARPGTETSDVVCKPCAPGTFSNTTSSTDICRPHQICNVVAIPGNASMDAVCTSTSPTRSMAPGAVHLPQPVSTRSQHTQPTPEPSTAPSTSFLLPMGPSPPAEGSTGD
The experiment is described as follows: SPR off-target binding (selectivity) to human TNFR2 ECD. Summed up:
(§1)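 Biotinylated avi-tagged human TNFR1 or TNFR2 ECD, expressed in Sf21 insect cells, captured on streptavidin SPR chip; peptide analytes run in 10 mM HEPES pH 7.4, 150 mM NaCl, 3 mM EDTA, 0.05% P20, 2% DMSO. kon and koff measured, affinity KA calculated.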

In experiment [2] the target is T2, human soluble TNFR1 (sTNFR1) (Homo sapiens, UniProt P19438).
T2 construct: made in house; host or cells: Sf21 (baculovirus)
T2 sequence (P19438 with tags, fused parts or gaps): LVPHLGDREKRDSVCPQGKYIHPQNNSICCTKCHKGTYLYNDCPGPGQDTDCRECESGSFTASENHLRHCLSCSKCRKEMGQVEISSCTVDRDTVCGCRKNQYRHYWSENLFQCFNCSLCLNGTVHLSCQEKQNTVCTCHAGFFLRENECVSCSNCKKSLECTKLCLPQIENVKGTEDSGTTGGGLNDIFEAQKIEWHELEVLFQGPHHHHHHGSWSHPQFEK
The experiment is described as follows: Human sTNFR1-peptide displacement assay (LanthaScreen Eu TR-FRET binding assay). In short, it runs like this: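 Readout is the 665/615 nm TR-FRET ratio (Eu anti-His donor, streptavidin-Alexa647 acceptor), normalized to DMSO and saturating displacer, fit by Morrison-based five-parameter logistic for Kd^app. His-tagged sTNFR1 (1-211) prebound to 100 nM biotinylated peptide SEQ ID NO.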
(TR-FRET usually uses a lanthanide donor and a delayed reading to cut background.)

For experiment [3], the target named is T3, human TNFR1 extracellular domain (ECD) protein (Homo sapiens, UniProt P19438).
T3 construct: HRV 3C protease cleavage site (C); 6His (C, cleaved yes); made in house; host or cells: Sf21 insect cells (baculovirus), secreted
T3 sequence (P19438 30-211): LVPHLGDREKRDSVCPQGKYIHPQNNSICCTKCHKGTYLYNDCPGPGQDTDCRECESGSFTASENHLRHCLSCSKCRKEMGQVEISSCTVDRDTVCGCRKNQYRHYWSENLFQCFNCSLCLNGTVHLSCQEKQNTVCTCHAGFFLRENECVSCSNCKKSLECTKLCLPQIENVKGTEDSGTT
The experiment in a line: SPR binding affinity to captured human TNFR1 ECD. Summed up:
as §1
(In SPR one partner is held on a chip, and binding of the other changes the refractive index at the surface.)

Numbered stars: 1 amine (or outer) side, 2 acyl side, 3 side chain; on linkers, the order of the positions; unused ones are H or OH. Bridge positions count the residues as written; N and C are the ends. Square brackets hold non-standard residues; d marks the D form. Peptide text beside a SMILES is read from it. * marks the point of attachment. Trp(βS-Me,7-OMe) = COc1cccc2c([C@H](C)[C@H](N)C(=O)O)c[nH]c12; Phe(3R-OH) = O=C([C@@H](N[*:1])[C@H](O[*:3])c1ccccc1)[*:2]; Phe(4-SO2NH2) = N[C@@H](Cc1ccc(S(N)(=O)=O)cc1)C(=O)O; Phe(2-F,4-COOH) = N[C@@H](Cc1ccc(C(=O)O)cc1F)C(=O)O; Trp(7-CN) = N#Cc1cccc2c(C[C@H](N)C(=O)O)c[nH]c12; Trp(7-Cl) = N[C@@H](Cc1c[nH]c2c(Cl)cccc12)C(=O)O; Phe(4-CONH2) = NC(=O)c1ccc(C[C@H](N)C(=O)O)cc1; Phe(4-COOH) = N[C@@H](Cc1ccc(C(=O)O)cc1)C(=O)O; Trp(7-aza) = N[C@@H](Cc1c[nH]c2ncccc12)C(=O)O; Pip(5R-OH) = O=C(O)[C@@H]1CC[C@@H](O)CN1; X1 = O=C([C@@H]1CC[C@H](N[*:1])C1)[*:2]; 2Nal = N[C@@H](Cc1ccc2ccccc2c1)C(=O)O; X31 = O=C(CN(CCc1nnco1)[*:1])[*:2]; hPhe = N[C@@H](CCc1ccccc1)C(=O)O; 3Pal = N[C@@H](Cc1cccnc1)C(=O)O; 4Pal = N[C@@H](Cc1ccncc1)C(=O)O; NMeE = CN[C@@H](CCC(=O)O)C(=O)O; dHyp = O=C(O)[C@H]1C[C@H](O)CN1; αMeS = C[C@](N)(CO)C(=O)O; Carboxymethyl = O=C(O)C*; Nle = CCCC[C@H](N)C(=O)O; Dap = NC[C@H](N)C(=O)O; Sar = CNCC(=O)O Bounds are passed on as bounds.

On to `CCCC[C@@H]1NC(=O)[C@@H]2CC[C@@H](C2)NC(=O)[C@H]([C@@H](C)c2c[nH]c3c(OC)cccc23)NC(=O)CN(C)C(=O)[C@H](Cc2ccc(C(=O)O)cc2F)NC(=O)[C@H](Cc2ccc(S(N)(=O)=O)cc2)NC(=O)[C@](C)(CO)NC(=O)[C@H](Cc2c[nH]c3c(C#N)cccc23)NC(=O)[C@H](Cc2ccc(C(=O)O)cc2F)NC(=O)[C@H](CC(N)=O)NC(=O)[C@H]2C[C@H](OCC(=O)O)CN2C(=O)[C@H](Cc2c[nH]c3ncccc23)NC(=O)[C@@H]2CC[C@@H](O)CN2C(=O)[C@H](Cc2ccncc2)NC1=O` [SEQ ID NO. 134] (cyclo([4Pal][Pip(5R-OH)][Trp(7-aza)][dHyp](Carboxymethyl)N[Phe(2-F,4-COOH)][Trp(7-CN)][αMeS][Phe(4-SO2NH2)][Phe(2-F,4-COOH)][Sar][Trp(βS-Me,7-OMe)][X1][Nle])), for which the Kd – broadly, the equilibrium constant for the complex coming apart – in experiment [1] was more than 1000 nM; in experiment [2], 0.06 nM; in experiment [3], 0.05 nM.
Take `CCCC[C@@H]1NC(=O)CSC[C@@H](C(N)=O)NC(=O)[C@H]([C@@H](C)c2c[nH]c3c(OC)cccc23)NC(=O)CN(C)C(=O)[C@H](Cc2ccc(O)cc2)NC(=O)[C@H](Cc2ccc(C(=O)O)cc2)NC(=O)[C@](C)(CO)NC(=O)[C@H](Cc2c[nH]c3c(Cl)cccc23)NC(=O)[C@H](Cc2ccncc2)NC(=O)[C@H](CC(N)=O)NC(=O)[C@H](CCC(=O)O)N(C)C(=O)[C@H](Cc2c[nH]c3ncccc23)NC(=O)[C@H](CO)NC(=O)[C@H]([C@H](O)c2ccccc2)NC1=O` [SEQ ID NO. 259] ({CH2CO}-[Nle][Phe(3R-OH)]S[Trp(7-aza)][NMeE]N[4Pal][Trp(7-Cl)][αMeS][Phe(4-COOH)]Y[Sar][Trp(βS-Me,7-OMe)]C-NH2; thioether N-14): the Kd in experiment [1] was more than 1000 nM; in experiment [2], 0.22 nM; in experiment [3], 0.15 nM.
For the compound `CCCC[C@@H]1NC(=O)[C@@H]2CC[C@@H](C2)NC(=O)[C@H]([C@@H](C)c2c[nH]c3c(OC)cccc23)NC(=O)CN(C)C(=O)[C@H](Cc2ccc(C(N)=O)cc2)NC(=O)[C@H](Cc2ccc(C(N)=O)cc2)NC(=O)[C@](C)(CO)NC(=O)[C@H](Cc2c[nH]c3c(C#N)cccc23)NC(=O)[C@H](Cc2ccc(C(=O)O)cc2)NC(=O)[C@H](CC(N)=O)NC(=O)[C@H](CCC(=O)O)N(C)C(=O)[C@H](Cc2c[nH]c3ccccc23)NC(=O)[C@@H]2CC[C@@H](O)CN2C(=O)[C@H](Cc2ccncc2)NC1=O` [SEQ ID NO. 19] (cyclo([4Pal][Pip(5R-OH)]W[NMeE]N[Phe(4-COOH)][Trp(7-CN)][αMeS][Phe(4-CONH2)][Phe(4-CONH2)][Sar][Trp(βS-Me,7-OMe)][X1][Nle])), the values for the dissociation constant Kd in experiment [1], in experiment [2] and in experiment [3] were more than 1000 nM, 0.08 nM and 0.07 nM, respectively.
As for `CN1CC(=O)N[C@@H](Cc2c[nH]c3ccccc23)C(=O)N[C@H](C(N)=O)CSCC(=O)N[C@@H](CCc2ccccc2)C(=O)N[C@@H](Cc2ccncc2)C(=O)N[C@@H](CN)C(=O)N[C@@H](Cc2c[nH]c3ccccc23)C(=O)N2CCC[C@@H]2C(=O)N[C@@H](CC(N)=O)C(=O)N[C@@H](Cc2ccncc2)C(=O)N[C@@H](Cc2ccc3ccccc3c2)C(=O)N[C@@](C)(CO)C(=O)N[C@@H](Cc2ccc(C(=O)O)cc2)C(=O)N[C@@H](Cc2cccnc2)C1=O` [SEQ ID NO. 233] ({CH2CO}-[hPhe][4Pal][Dap]W[dP]N[4Pal][2Nal][αMeS][Phe(4-COOH)][3Pal][Sar]WC-NH2; thioether N-14), the Kd in experiment [1] is more than 1000 nM; in experiment [3], 0.78 nM. The IC50 (usually the concentration at which inhibition is half-maximal) in experiment [2] was determined as 2.65 nM.
Take `CCCC[C@@H]1NC(=O)[C@@H]2CC[C@@H](C2)NC(=O)[C@H]([C@@H](C)c2c[nH]c3c(OC)cccc23)NC(=O)CN(C)C(=O)[C@H](Cc2ccc(C(=O)O)cc2)NC(=O)[C@H](Cc2ccc(C(N)=O)cc2)NC(=O)[C@](C)(CO)NC(=O)[C@H](Cc2c[nH]c3c(C#N)cccc23)NC(=O)[C@H](Cc2ccncc2)NC(=O)[C@H](CC(N)=O)NC(=O)CN(CCc2nnco2)C(=O)[C@H](Cc2c[nH]c3ncccc23)NC(=O)[C@@H]2CC[C@@H](O)CN2C(=O)[C@H](Cc2ccncc2)NC1=O` [SEQ ID NO. 121] (cyclo([4Pal][Trp(7-CN)][αMeS][Phe(4-CONH2)][Phe(4-COOH)][Sar][Trp(βS-Me,7-OMe)][X1][Nle][4Pal][Pip(5R-OH)][Trp(7-aza)][X31]N)): the figures for the dissociation constant (Kd) in experiment [1], in experiment [2] and in experiment [3] were more than 1000 nM, 0.07 nM and 0.02 nM, respectively.
